Assays:
[1] = target: T1, 5-hydroxytryptamine receptor 1A (Homo sapiens, UniProt P08908); assay: Binding affinity for human cloned 5-hydroxytryptamine 1A receptor
T1 sequence (P08908 whole entry): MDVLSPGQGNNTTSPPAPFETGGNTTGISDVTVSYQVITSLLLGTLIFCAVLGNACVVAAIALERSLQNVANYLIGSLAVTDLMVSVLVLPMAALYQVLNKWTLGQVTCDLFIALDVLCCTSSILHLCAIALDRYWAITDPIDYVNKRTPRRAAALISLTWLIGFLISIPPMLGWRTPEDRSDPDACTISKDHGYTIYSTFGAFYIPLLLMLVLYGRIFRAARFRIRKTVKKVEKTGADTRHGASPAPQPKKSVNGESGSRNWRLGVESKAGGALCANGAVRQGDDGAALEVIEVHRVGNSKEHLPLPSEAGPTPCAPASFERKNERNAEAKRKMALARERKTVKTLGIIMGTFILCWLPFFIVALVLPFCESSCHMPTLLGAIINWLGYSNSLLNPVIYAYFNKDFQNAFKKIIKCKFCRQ

[2] = target: 5-hydroxytryptamine receptor 1D (Homo sapiens, UniProt P28221); assay: Binding affinity for human cloned 5-hydroxytryptamine 1D receptor
Sequence of 5-hydroxytryptamine receptor 1D (P28221 whole entry): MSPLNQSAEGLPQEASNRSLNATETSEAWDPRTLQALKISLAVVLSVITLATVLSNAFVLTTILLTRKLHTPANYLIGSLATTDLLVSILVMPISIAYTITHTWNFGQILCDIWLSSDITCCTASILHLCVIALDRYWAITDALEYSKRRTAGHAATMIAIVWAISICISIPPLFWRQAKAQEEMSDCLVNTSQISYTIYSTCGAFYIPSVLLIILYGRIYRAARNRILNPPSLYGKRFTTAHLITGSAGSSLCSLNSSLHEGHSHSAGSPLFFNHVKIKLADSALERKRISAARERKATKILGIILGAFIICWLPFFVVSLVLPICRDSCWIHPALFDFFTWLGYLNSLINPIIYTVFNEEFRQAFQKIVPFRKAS

[3] = target: T2, 5-hydroxytryptamine receptor 2C (Homo sapiens, UniProt P28335); assay: Binding affinity for human cloned 5-hydroxytryptamine 2C receptor expressed in CHO cells using [3H]mesulergine as radioligand; format: cell-based
T2 sequence (P28335 whole entry): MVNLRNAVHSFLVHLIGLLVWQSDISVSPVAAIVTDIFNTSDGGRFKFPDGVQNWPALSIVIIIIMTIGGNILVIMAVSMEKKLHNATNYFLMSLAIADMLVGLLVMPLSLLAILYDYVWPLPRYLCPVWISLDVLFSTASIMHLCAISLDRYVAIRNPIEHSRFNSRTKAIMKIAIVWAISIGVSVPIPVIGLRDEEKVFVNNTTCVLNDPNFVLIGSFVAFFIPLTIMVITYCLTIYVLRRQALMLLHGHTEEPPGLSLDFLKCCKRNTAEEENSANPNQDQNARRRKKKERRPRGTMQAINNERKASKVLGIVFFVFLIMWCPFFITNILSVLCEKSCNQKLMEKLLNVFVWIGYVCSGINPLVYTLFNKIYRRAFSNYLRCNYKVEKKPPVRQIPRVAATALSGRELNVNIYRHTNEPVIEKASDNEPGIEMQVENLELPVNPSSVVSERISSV

[4] = target: 5-hydroxytryptamine receptor 2A (Homo sapiens, UniProt P28223); assay: biochemical; format: cell-based, L929
Sequence of 5-hydroxytryptamine receptor 2A (P28223 whole entry): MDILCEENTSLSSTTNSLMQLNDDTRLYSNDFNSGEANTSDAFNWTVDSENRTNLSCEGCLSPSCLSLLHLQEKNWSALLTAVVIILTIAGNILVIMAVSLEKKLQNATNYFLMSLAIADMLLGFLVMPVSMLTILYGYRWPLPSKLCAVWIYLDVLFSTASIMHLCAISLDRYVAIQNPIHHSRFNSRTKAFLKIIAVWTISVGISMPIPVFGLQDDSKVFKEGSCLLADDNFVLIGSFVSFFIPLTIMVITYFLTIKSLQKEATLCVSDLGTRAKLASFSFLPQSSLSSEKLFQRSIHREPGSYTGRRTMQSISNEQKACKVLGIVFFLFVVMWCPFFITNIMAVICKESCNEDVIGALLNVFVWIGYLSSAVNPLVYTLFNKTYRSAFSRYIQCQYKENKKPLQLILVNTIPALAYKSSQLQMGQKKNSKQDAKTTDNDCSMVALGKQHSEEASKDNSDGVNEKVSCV
Description: Binding affinity for human cloned 5-hydroxytryptamine 2A receptor expressed in L929 cells using [125I]R91150 as radioligand

[5] = target: Serotonin 3 (5-HT3) receptor; assay: Binding affinity for human cloned 5-hydroxytryptamine 3 receptor; format: protein-complex assay
[6] = target: T3, Alpha-2A adrenergic receptor (Homo sapiens, UniProt P08913); assay: Binding affinity for human cloned Alpha-2A adrenergic receptor
T3 sequence (P08913 whole entry): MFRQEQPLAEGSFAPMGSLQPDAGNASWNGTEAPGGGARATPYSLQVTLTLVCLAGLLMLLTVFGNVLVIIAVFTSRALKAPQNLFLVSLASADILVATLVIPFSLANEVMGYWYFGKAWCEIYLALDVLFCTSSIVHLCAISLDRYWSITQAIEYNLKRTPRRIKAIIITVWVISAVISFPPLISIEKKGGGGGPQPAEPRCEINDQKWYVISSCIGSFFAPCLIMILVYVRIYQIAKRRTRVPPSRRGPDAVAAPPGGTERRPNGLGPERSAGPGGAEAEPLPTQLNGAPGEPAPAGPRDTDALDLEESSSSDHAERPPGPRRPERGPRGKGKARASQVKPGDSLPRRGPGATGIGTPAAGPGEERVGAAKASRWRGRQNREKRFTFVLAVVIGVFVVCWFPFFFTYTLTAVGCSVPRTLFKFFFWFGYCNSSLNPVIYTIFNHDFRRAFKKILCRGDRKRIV

[7] = target: T4, Alpha-1A adrenergic receptor (Homo sapiens, UniProt P35348); assay: Binding affinity for human cloned Alpha-1A adrenergic receptor
T4 sequence (P35348 whole entry): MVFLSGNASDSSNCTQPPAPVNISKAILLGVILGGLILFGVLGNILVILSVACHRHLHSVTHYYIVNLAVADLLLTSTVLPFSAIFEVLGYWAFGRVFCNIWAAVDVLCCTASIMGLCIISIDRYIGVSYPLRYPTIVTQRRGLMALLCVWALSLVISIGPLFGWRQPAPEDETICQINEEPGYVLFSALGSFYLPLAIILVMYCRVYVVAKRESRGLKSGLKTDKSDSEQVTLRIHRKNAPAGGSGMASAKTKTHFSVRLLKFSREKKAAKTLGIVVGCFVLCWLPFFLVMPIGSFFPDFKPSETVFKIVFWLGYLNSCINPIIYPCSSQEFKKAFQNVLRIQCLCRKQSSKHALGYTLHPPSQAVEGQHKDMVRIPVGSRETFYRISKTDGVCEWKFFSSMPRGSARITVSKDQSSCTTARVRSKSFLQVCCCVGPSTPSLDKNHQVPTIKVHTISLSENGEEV

[8] = target: T5, Alpha-2C adrenergic receptor (Homo sapiens, UniProt P18825); assay: Binding affinity for human cloned Alpha-2C adrenergic receptor
T5 sequence (P18825 whole entry): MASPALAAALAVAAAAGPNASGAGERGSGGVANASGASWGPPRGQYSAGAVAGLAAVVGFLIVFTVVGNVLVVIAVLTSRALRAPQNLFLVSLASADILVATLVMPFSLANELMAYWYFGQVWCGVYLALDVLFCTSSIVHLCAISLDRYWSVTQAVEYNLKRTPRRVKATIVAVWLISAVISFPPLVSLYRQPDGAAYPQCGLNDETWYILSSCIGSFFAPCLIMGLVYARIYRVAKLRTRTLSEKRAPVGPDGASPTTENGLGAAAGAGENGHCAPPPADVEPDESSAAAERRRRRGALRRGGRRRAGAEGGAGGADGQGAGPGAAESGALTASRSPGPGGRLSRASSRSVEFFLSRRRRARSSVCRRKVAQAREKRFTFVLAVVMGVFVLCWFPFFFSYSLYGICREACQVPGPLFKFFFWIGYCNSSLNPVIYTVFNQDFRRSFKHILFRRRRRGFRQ

[9] = target: D(3) dopamine receptor (Homo sapiens, UniProt P35462); assay: Binding affinity for human cloned Dopamine receptor D3
Sequence of D(3) dopamine receptor (P35462 whole entry): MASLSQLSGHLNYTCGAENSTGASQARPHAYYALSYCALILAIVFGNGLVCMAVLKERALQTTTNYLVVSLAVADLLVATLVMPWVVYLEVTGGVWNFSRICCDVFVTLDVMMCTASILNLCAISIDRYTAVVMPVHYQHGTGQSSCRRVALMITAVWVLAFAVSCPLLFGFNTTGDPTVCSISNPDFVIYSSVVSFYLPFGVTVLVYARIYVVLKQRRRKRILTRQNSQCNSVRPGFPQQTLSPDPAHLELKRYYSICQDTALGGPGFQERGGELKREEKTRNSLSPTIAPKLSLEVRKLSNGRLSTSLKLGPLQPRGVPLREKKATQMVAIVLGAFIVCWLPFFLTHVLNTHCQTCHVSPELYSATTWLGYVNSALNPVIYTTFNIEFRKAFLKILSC

[10] = target: T6, 5-hydroxytryptamine receptor 2C (Rattus norvegicus) (UniProt P08909); assay: In vivo activity in rat mCPP challenge test following p.o. administration.; format: functional, organism-based
T6 sequence (whole entry): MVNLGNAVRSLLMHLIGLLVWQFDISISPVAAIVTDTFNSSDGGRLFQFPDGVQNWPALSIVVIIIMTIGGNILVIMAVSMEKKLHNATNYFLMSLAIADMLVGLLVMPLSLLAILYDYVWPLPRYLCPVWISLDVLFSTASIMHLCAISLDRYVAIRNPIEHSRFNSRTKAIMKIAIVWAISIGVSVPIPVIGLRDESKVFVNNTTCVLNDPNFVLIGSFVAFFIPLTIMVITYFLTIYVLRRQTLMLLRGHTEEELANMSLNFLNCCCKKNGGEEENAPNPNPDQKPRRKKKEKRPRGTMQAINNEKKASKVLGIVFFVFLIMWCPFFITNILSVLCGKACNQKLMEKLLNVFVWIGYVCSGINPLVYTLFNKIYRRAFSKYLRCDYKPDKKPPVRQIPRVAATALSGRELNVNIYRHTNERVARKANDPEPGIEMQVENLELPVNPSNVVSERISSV

[11] = system: Rattus norvegicus; assay: In vivo activity in mCPP challenge test were performed in male Wistar rats by subcutaneous administration; format: functional; conditions: Rattus norvegicus, sc; read-out: ED50
[12] = target: 5-hydroxytryptamine receptor 7 (Homo sapiens, UniProt P34969); assay: Binding affinity for human cloned 5-hydroxytryptamine 7 receptor
Sequence of 5-hydroxytryptamine receptor 7 (P34969 whole entry): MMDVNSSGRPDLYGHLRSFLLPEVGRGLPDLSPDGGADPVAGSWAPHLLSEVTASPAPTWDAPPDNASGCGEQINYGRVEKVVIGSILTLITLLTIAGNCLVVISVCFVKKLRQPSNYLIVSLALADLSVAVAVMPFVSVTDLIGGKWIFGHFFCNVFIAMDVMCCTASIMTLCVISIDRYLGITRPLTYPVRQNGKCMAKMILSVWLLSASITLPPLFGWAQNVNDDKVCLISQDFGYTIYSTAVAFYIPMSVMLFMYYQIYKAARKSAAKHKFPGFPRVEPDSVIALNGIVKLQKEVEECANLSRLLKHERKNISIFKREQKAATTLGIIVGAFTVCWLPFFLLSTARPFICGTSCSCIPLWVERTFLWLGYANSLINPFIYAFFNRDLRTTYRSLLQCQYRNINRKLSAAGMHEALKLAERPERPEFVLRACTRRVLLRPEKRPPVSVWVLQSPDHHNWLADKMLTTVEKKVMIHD

[13] = target: D(2) dopamine receptor (Homo sapiens, UniProt P14416); assay: Binding affinity for human cloned Dopamine receptor D2L
Sequence of D(2) dopamine receptor (P14416 whole entry): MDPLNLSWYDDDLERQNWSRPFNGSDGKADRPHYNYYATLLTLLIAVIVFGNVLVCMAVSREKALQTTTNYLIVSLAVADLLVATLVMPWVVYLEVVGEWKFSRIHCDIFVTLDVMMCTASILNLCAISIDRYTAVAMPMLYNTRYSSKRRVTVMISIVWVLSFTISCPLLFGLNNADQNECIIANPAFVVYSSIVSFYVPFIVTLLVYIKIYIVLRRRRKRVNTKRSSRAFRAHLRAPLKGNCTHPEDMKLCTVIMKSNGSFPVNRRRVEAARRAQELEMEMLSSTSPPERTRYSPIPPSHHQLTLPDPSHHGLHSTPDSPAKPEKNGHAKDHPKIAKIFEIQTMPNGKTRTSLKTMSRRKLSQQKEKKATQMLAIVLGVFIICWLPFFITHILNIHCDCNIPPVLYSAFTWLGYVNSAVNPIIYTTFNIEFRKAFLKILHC

[14] = target: T7, D(4) dopamine receptor (Homo sapiens, UniProt P21917); assay: Binding affinity for human cloned Dopamine receptor D4
T7 sequence (P21917 whole entry): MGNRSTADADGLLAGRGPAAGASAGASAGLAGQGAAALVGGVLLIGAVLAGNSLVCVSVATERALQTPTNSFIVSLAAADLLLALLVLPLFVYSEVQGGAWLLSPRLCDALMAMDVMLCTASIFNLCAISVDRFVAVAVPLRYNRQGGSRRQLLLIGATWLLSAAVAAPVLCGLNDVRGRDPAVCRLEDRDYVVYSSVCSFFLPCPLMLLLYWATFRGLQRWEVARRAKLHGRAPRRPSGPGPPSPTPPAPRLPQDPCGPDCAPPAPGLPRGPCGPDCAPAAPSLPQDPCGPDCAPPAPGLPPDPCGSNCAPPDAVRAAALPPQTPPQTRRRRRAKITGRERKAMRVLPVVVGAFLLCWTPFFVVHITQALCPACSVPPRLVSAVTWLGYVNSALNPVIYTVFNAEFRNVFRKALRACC

[15] = target: Histamine H1 receptor (Homo sapiens, UniProt P35367); assay: Binding affinity for human cloned Histamine H1 receptor expressed in CHO cells using [3H]pyrilamine as radioligand; format: cell-based
Sequence of Histamine H1 receptor (P35367 whole entry): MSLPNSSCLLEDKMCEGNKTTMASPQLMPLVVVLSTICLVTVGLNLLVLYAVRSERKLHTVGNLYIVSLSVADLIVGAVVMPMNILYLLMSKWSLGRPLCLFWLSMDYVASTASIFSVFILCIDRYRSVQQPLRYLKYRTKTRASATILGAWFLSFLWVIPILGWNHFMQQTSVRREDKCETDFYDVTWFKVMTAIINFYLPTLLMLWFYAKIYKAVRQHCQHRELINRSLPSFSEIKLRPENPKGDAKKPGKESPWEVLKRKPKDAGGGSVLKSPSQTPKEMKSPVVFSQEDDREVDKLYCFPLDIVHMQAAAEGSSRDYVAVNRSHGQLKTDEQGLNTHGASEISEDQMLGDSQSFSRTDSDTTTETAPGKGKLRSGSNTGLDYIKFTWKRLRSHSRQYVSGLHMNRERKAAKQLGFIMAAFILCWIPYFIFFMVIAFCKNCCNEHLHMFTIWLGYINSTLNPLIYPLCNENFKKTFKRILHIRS

`CNCC1CC2c3ccccc3Cc3ccccc3N2O1` (stereo not given) showed an IC50 [1] of over 1 µM, an IC50 [2] of over 1 µM and an IC50 [3] of 0.00708 µM. The IC50 [4] was 0.0132 µM, the pIC50 [5] was under 6 and the IC50 [6] was 0.437 µM. The IC50 [7] was 0.191 µM, the IC50 [8] was over 1 µM and the IC50 [9] was 0.339 µM. It also gave an ED50 [10] of over 2.5 mg/kg, an ED50 [11] of 0.16 mg/kg and an IC50 [12] of 0.0186 µM. The IC50 [13] was 1.7 µM, the IC50 [14] was 0.302 µM and the IC50 [15] was 0.0107 µM.

Reference: ChEMBL document CHEMBL1135380, “Synthesis and structure-activity relationship of 2-(aminoalkyl)-2,3,3a,8-tetrahydrodibenzo[c,f]isoxazolo[2,3-a]azepine derivatives: a novel series of 5-HT(2A/2C) receptor antagonists. Part 1” (Bioorg Med Chem Lett, 2002)
